According to patent US5010058A, “3,5,6-substituted derivatives of 1,2-O-isopropylidene-α,D-glucofuranose and intermediates for preparing these derivatives” (501 Greenwich Pharmaceuticals Incorporated, priority 1989, dated 1991):
Where two headings read alike, the source gives them in different places.

Columns and labels:
[1] = tested on: normal spleen cells / splenic T-lymphocytes (Con-A stimulated); assay: Con-A blastogenic response of normal spleen cells (3H-thymidine incorporation); assay type: cell-based, mouse (C57Bl/6); details: for Blastogenic response of normal spleen cells to Con-A: triplicates ± SD; for inhibition at 1 µg/mL / inhibition at 10 µg/mL / inhibition at 25 µg/mL / inhibition at 100 µg/mL / inhibition at 300 µg/mL / inhibition at 750 µg/mL: Mus musculus, T-lymphocyte, 72 h, percent change from no compound, read-out: Blastogenic response of normal spleen cells to Con-A, % effect
Text: A simple method is used to screen compounds for their ability to modulate T-lymphocyte activity which comprises assessing the capacity of the compounds to alter the activation of murine spleen cells in response to T-lymphocyte mitogen activators, such as concanavalin-A (Con-A). The method used to measure the effects of the compounds of the present invention on the blastogenic response of spleen cells to the T-lymphocyte mitogen, (i.e., Con-A), is as follows.
Spleen cells were removed from normal C57Bl/6 mice and homogenized to obtain a single cell suspension. Erythrocytes were lysed by hypotonic shock. Upon determination of the viability and concentration of the remaining lymphoid cells, they were adjusted to a concentration of 4×10^6 /ml. These spleen cells (2×10^5 cells per […]) were seeded into wells of microtiter plates with the compounds of the present invention having the following dose concentrations:
Con-A was also added to these cultures at a final concentration of […]. These cells were cultured for 3 days at 37° C. in a humidified atmosphere of 5% CO2 in air. For the last 18 hours of culture, […] H-thymidine was added to each well. The cells were then precipitated by a multichannel harvester. The amount of ^3 H-thymidine incorporated by the cultured cells were measured in a liquid scintillation counter (Disintegrations per min., DPM). All assays were conducted in triplicate.
The incubation medium used for the blastogenesis assays was RPMI-1640 medium containing 10% fetal bovine serum, […] streptomycin, 100 U/ml penicillin, […] Hepes buffer solution, 5×10^-5 M 2-mercaptoethanol and 2 mM glutamine.
(§1) ^a Experimental compounds were first suspended in DMSO or ethanol,
^b The effect of experimental compounds on the blastogenic response o

[2] = tested on: BUD-8 skin cell fibroblasts; assay: Proliferation of BUD-8 skin cell fibroblasts (3H-thymidine uptake); assay type: cell-based, human; details: for 3H-Thymidine uptake by BUD-8 skin cells: triplicates ± SD
Method: The human skin cell fibroblast line, BUD-8, was originally derived from the normal skin of a person and can now be obtained from the American Type Culture Collection.
The number of BUD-8 cells was expanded for use by culture in 25 cm^2 flasks at 37° C. in an atmosphere of 5% CO2 in air. At approximately 4-5 five day intervals, or when confluence was reached, the cells were passaged. This was accomplished by detaching the cells with a Teflon scraper, washing and reseeding the cells at a lower density into fresh tissue culture flasks.
The effect of these compound on the proliferative capacity of human BUD-8 skin fibroblasts was measured with the use of a ^3 H-thymidine incorporation assay using culture conditions which were similar to those used for the Con-A blastogenesis assay, described previously. Cultured skin cells were detached from the surface of tissue culture flasks mechanically with a Teflon scraper. The cells were washed, resuspended in incubation medium and the viabilities were determined. These cells were then plated in triplicate at a density of 2×10^3 cells/0.1 ml/microtiter well for the proliferation assays. […] Eighteen hours later, each of the BUD-8 cultures was examined morphologically for evidence of compound-induced toxicity such as cell rounding or granularity. The thymidine-pulsed cells were then precipitated and the amount of ^3 H-thymidine incorporation was counted in a liquid scintillation counter. […]
as §1
^b The effect of experimental compounds on the proliferation of BUD8

[3] = tested on: leukotriene B4 (LTB4) secretion by BUD-8 skin cell fibroblasts; assay: Secretion of LTB4 by BUD-8 skin cell fibroblasts (radioimmunoassay); assay type: cell-based, human; details: for LTB4 in supernatant of BUD-8 skin cells: triplicate ± SD
Method: Levels of LTB4 in aliquots of BUD-8 skin cell cultures supernatants were quantified by radioimmunoassay. The cells were first plated in triplicate at a density of 1×10^4 cells/0.1 ml/microtiter well for the assay to quantitate LTB4. To these cells was added 0.1 ml incubation medium containing compound 80182, or nordihydroguaiaretic acid (NDGA) to inhibit leukotriene production. After 18 hours of culture, samples of the BUD-8 skin cell supernatants were collected from one set of microtiter plates and frozen until assayed for LTB4 content using a radioimmunoassay. Into a polypropylene tube were mixed 0.1 ml anti-LTB4, 0.1 ml^3 H-LTB4 and 0.1 ml LTB4 standard or LTB4 containing sample. The BUD-8 skin cell culture supernatants were used directly in the radioimmunoassay. The tubes were refrigerated overnight. A charcoal solution (0.5 ml of 0.5% charcoal Norit A) was added and each tube was centrifuged. The radio activity in the supernatant was then counted in a liquid scintillation counter. | ^a Experimental compounds were first suspended in DMSO or ethanol, | ^b The effect of experimental compounds on the amount of LTB4 in […]

[4] = Con-A 1 ug/ml, compound 1 ug/ml
[5] = Con-A 1 ug/ml, compound 10 ug/ml
[6] = Con-A 1 ug/ml, compound 25 ug/ml
[7] = Con-A 1 ug/ml, compound 100 ug/ml
[8] = Con-A 1 ug/ml, compound 300 ug/ml
[9] = Con-A 1 ug/ml, compound 750 ug/ml
[10] = Con-A 4 ug/ml, compound 1 ug/ml
[11] = Con-A 4 ug/ml, compound 10 ug/ml
[12] = Con-A 4 ug/ml, compound 25 ug/ml
[13] = Con-A 4 ug/ml, compound 100 ug/ml
[14] = Con-A 4 ug/ml, compound 300 ug/ml
[15] = Con-A 4 ug/ml, compound 750 ug/ml

CCCCCCCCCCCNCC(O)C1OC2OC(C)(C)OC2C1O [Ex. 2, 1,2-O-Isopropylidene-6-deoxy-6-aminoundecyl-α, D-glucofuranose]
Blastogenic response of normal spleen cells to Con-A [1, 4]: 13,581 ± 4,804 cpm
Blastogenic response of normal spleen cells to Con-A [1, 5]: 5,014 ± 89 cpm
Blastogenic response of normal spleen cells to Con-A [1, 6]: 3,312 ± 1,541 cpm
Blastogenic response of normal spleen cells to Con-A [1, 7]: 2,967 ± 964 cpm
Blastogenic response of normal spleen cells to Con-A [1, 8]: 2,934 ± 299 cpm
Blastogenic response of normal spleen cells to Con-A [1, 9]: 2,020 ± 651 cpm
Blastogenic response of normal spleen cells to Con-A [1, 10]: 18,607 ± 8,159 cpm
Blastogenic response of normal spleen cells to Con-A [1, 11]: 4,293 ± 3,517 cpm
Blastogenic response of normal spleen cells to Con-A [1, 12]: 1,635 ± 635 cpm
Blastogenic response of normal spleen cells to Con-A [1, 13]: 2,618 ± 444 cpm
Blastogenic response of normal spleen cells to Con-A [1, 14]: 2,787 ± 413 cpm
Blastogenic response of normal spleen cells to Con-A [1, 15]: 1,575 ± 480 cpm
inhibition at 1 µg/mL [1, 4]: 81%
inhibition at 10 µg/mL [1, 5]: 93%
inhibition at 25 µg/mL [1, 6]: 95%
inhibition at 100 µg/mL [1, 7]: 96%
inhibition at 300 µg/mL [1, 8]: 96%
inhibition at 750 µg/mL [1, 9]: 97%
inhibition at 1 µg/mL [1, 10]: 81%
inhibition at 10 µg/mL [1, 11]: 96%
inhibition at 25 µg/mL [1, 12]: 98%
inhibition at 100 µg/mL [1, 13]: 97%
inhibition at 300 µg/mL [1, 14]: 97%
inhibition at 750 µg/mL [1, 15]: 98%
anti-proliferative effect on skin cells [2]: anti-proliferative effect that was statistically significant
inhibition at 1 µg/mL ([2]; Homo sapiens, Fibroblast, compound 1 ug/ml, percent change from no compound, read-out: 3H-Thymidine uptake by BUD-8 skin cells, % effect): 1%
inhibition at 10 µg/mL ([2]; Homo sapiens, Fibroblast, compound 10 ug/ml, percent change from no compound, read-out: 3H-Thymidine uptake by BUD-8 skin cells, % effect): 46%
inhibition at 25 µg/mL ([2]; Homo sapiens, Fibroblast, compound 25 ug/ml, percent change from no compound, read-out: 3H-Thymidine uptake by BUD-8 skin cells, % effect): 77%
inhibition at 100 µg/mL ([2]; Homo sapiens, Fibroblast, compound 100 ug/ml, percent change from no compound, read-out: 3H-Thymidine uptake by BUD-8 skin cells, % effect): 89%
inhibition at 300 µg/mL ([2]; Homo sapiens, Fibroblast, compound 300 ug/ml, percent change from no compound, read-out: 3H-Thymidine uptake by BUD-8 skin cells, % effect): 90%
inhibition at 750 µg/mL ([2]; Homo sapiens, Fibroblast, compound 750 ug/ml, percent change from no compound, read-out: 3H-Thymidine uptake by BUD-8 skin cells, % effect): 85%
3H-Thymidine uptake by BUD-8 skin cells ([2]; compound 1 ug/ml): 6,069 ± 636 cpm
3H-Thymidine uptake by BUD-8 skin cells ([2]; compound 10 ug/ml): 3,363 ± 227 cpm
3H-Thymidine uptake by BUD-8 skin cells ([2]; compound 25 ug/ml): 1,430 ± 1,176 cpm
3H-Thymidine uptake by BUD-8 skin cells ([2]; compound 100 ug/ml): 649 ± 114 cpm
3H-Thymidine uptake by BUD-8 skin cells ([2]; compound 300 ug/ml): 595 ± 110 cpm
3H-Thymidine uptake by BUD-8 skin cells ([2]; compound 750 ug/ml): 911 ± 863 cpm
effect on LTB4 secretion / activity [3]: produced an effect upon the secretion of leukotriene B4
inhibition at 1 µg/mL ([3]; Homo sapiens, Fibroblast, 18 h, compound 1 ug/ml, percent change from no compound, read-out: LTB4 secretion, % Effect): -15%
inhibition at 10 µg/mL ([3]; Homo sapiens, Fibroblast, 18 h, compound 10 ug/ml, percent change from no compound, read-out: LTB4 secretion, % Effect): 37%
inhibition at 25 µg/mL ([3]; Homo sapiens, Fibroblast, 18 h, compound 25 ug/ml, percent change from no compound, read-out: LTB4 secretion, % Effect): 58%
inhibition at 100 µg/mL ([3]; Homo sapiens, Fibroblast, 18 h, compound 100 ug/ml, percent change from no compound, read-out: LTB4 secretion, % Effect): 22%
inhibition at 300 µg/mL ([3]; Homo sapiens, Fibroblast, 18 h, compound 300 ug/ml, percent change from no compound, read-out: LTB4 secretion, % Effect): 60%
inhibition at 750 µg/mL ([3]; Homo sapiens, Fibroblast, 18 h, compound 750 ug/ml, percent change from no compound, read-out: LTB4 secretion, % Effect): 42%
calculated LTB4 secreted/10^5 BUD-8 cells ([3]; compound 1 ug/ml): 862 pg LTB4 per 10^5 cells
LTB4 in supernatant of BUD-8 skin cells ([3]; compound 1 ug/ml): 44.4 ± 3.8 pg LTB4 /100 ul supernatant
calculated LTB4 secreted/10^5 BUD-8 cells ([3]; compound 10 ug/ml): 485 pg LTB4 per 10^5 cells
LTB4 in supernatant of BUD-8 skin cells ([3]; compound 10 ug/ml): 24.6 ± 5.3 pg LTB4 /100 ul supernatant
calculated LTB4 secreted/10^5 BUD-8 cells ([3]; compound 25 ug/ml): 303 pg LTB4 per 10^5 cells
LTB4 in supernatant of BUD-8 skin cells ([3]; compound 25 ug/ml): 16.4 ± 2.0 pg LTB4 /100 ul supernatant
calculated LTB4 secreted/10^5 BUD-8 cells ([3]; compound 100 ug/ml): 575 pg LTB4 per 10^5 cells
LTB4 in supernatant of BUD-8 skin cells ([3]; compound 100 ug/ml): 30.1 ± 3.9 pg LTB4 /100 ul supernatant
calculated LTB4 secreted/10^5 BUD-8 cells ([3]; compound 300 ug/ml): 281 pg LTB4 per 10^5 cells
LTB4 in supernatant of BUD-8 skin cells ([3]; compound 300 ug/ml): 15.3 ± 1.1 pg LTB4 /100 ul supernatant
calculated LTB4 secreted/10^5 BUD-8 cells ([3]; compound 750 ug/ml): 422 pg LTB4 per 10^5 cells
LTB4 in supernatant of BUD-8 skin cells ([3]; compound 750 ug/ml): 22.4 ± 4.2 pg LTB4 /100 ul supernatant
